{
  "source": "patent US20260241039A1",
  "about": "“FLUORESCENT PROBES FOR MAGL” (Hoffmann-La Roche Inc., priority 2022, published 2026)",
  "data": [
    {"molecular_target": "T1, hMAGL (Homo sapiens, UniProt Q99685)", "T1 sequence (Q99685 1-303)": "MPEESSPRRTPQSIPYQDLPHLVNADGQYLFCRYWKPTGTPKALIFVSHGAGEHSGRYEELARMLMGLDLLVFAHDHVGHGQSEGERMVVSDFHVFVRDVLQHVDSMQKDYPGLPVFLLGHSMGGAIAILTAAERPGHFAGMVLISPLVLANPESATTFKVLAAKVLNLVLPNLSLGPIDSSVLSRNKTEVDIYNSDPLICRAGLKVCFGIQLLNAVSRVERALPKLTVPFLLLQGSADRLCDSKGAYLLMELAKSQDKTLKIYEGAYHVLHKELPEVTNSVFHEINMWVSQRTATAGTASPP", "assay": "2-AG assay: MAGL inhibitory activity, hydrolysis of 2-arachidonoylglycerol to arachidonic acid followed by mass spectrometry", "format": "biochemical", "conditions": "15 min pre-incubation at RT, 30 min reaction at RT, 8 μM 2-arachidonoylglycerol", "procedure": "Compounds were profiled for MAGL inhibitory activity by determining the enzymatic activity by following the hydrolysis of the natural substrate 2-arachidonoylglycerol (2-AG) resulting in arachidonic acid, which can be followed by mass spectrometry. This assay is hereinafter abbreviated “2-AG assay”.\nThe 2-AG assay was carried out in 384 well assay plates (PP, Greiner Cat #784201) in a total volume of 20 μL. Compound dilutions were made in 100% DMSO (VWR Chemicals 23500.297) in a polypropylene plate in 3-fold dilution steps to give a final concentration range in the assay from 12.5 μM to […]. 0.25 μL compound dilutions (100% DMSO) were added to 9 μL MAGL in assay buffer (50 mM TRIS (GIBCO, 15567-027), 1 mM EDTA (Fluka, 03690-100 mL), 0.01% (v/v) Tween. After shaking, the plate was incubated for 15 min at RT. To start the reaction, 10 μL 2-arachidonoylglycerol in assay buffer was added. The final concentrations in the assay was […] and 8 μM 2-arachidonoylglyerol. After shaking and 30 min incubation at RT, the reaction was quenched by the addition of 40 μL of ACN containing 4 μM of d8-arachidonic acid. The amount of arachidonic acid was traced by an online SPE system (Agilent Rapidfire) coupled to a triple quadrupole mass spectrometer (Agilent 6460). A C18 SPE cartridge (G9205A) was used in an ACN/water liquid setup. The mass spectrometer was operated in negative electrospray mode following the mass transitions 303.1→259.1 for arachidonic acid and 311.1→267.0 for d8-arachidonic acid. The activity of the compounds was calculated based on the ratio of intensities [arachidonic acid/d8-arachidonic acid].", "units": {"IC50": "nM"}, "values": [
      {"compound": "2-(2-((5,5-difluoro-5H-4λ^4,5λ^4-dipyrrolo[1,2-c:2′,1′-f][1,3,2]diazaborinin-10-yl)oxy)-7-azaspiro[3.5]nonane-7-carbonyl)-7-oxa-2,5-diazaspiro[3.4]octan-6-one [Example 13]", "IC50": 3.99},
      {"compound": "2-(6-((5,5-difluoro-5H-4λ^4,5λ^4-dipyrrolo[1,2-c:2′,1′-f][1,3,2]diazaborinin-10-yl)methyl)-2-azaspiro[3.3]heptane-2-carbonyl)-7-oxa-2,5-diazaspiro[3.4]octan-6-one [Example 23]", "IC50": 1.26},
      {"compound": "2-(6-((5,5-difluoro-5H-4λ^4,5λ^4-dipyrrolo[1,2-c:2′,1′-f][1,3,2]diazaborinin-10-yl)methylene)-2-azaspiro[3.3]heptane-2-carbonyl)-7-oxa-2,5-diazaspiro[3.4]octan-6-one [Example 22]", "IC50": 12.6},
      {"compound": "2-(6-((5,5-difluoro-5H-4λ^4,5λ^4-dipyrrolo[1,2-c:2′,1′-f][1,3,2]diazaborinin-10-yl)oxy)-2-azaspiro[3.3]heptane-2-carbonyl)-7-oxa-2,5-diazaspiro[3.4]octan-6-one [Example 11]", "IC50": 1.76},
      {"compound": "2-(7-((5,5-difluoro-5H-4λ^4,5λ^4-dipyrrolo[1,2-c:2′,1′-f][1,3,2]diazaborinin-10-yl)methyl)-2-azaspiro[3.5]nonane-2-carbonyl)-7-oxa-2,5-diazaspiro[3.4]octan-6-one [Example 21]", "IC50": 0.69},
      {"compound": "2-(7-((5,5-difluoro-5H-4λ^4,5λ^4-dipyrrolo[1,2-c:2′,1′-f][1,3,2]diazaborinin-10-yl)methylene)-2-azaspiro[3.5]nonane-2-carbonyl)-7-oxa-2,5-diazaspiro[3.4]octan-6-one [Example 20]", "IC50": 0.67},
      {"compound": "6-(6-((5,5-difluoro-5H-4λ^4,5λ^4-dipyrrolo[1,2-c:2′,1′-f][1,3,2]diazaborinin-10-yl)methyl)-2-azaspiro[3.3]heptane-2-carbonyl)-2H-benzo[b][1,4]oxazin-3(4H)-one [Example 24]", "IC50": 7.5},
      {"compound": "O=C1CO[C@H]2CCN(C(=O)N3CC4(CC(Oc5ccc6ccc(=O)oc6c5)C4)C3)C[C@H]2N1", "note": "[Example 1]", "IC50": 255},
      {"compound": "O=C1CO[C@H]2CCN(C(=O)N3CC(COc4ccc5ccc(=O)oc5c4)C3)C[C@H]2N1", "note": "[Example 2, (4aR,8aS)-6-(3-(((2-oxo-2H-chromen-7-yl)oxy)methyl)azetidine-1-carbonyl)hexahydro-2H-pyrido[4,3-b][1,4]oxazin-3(4H)-one]", "IC50": 487},
      {"compound": "O=C1CO[C@H]2CCN(C(=O)N3CC(COc4cc(=O)oc5ccccc45)C3)C[C@H]2N1", "note": "[Example 3, (4aR,8aS)-6-(3-(((2-oxo-2H-chromen-4-yl)oxy)methyl)azetidine-1-carbonyl)hexahydro-2H-pyrido[4,3-b][1,4]oxazin-3(4H)-one]", "IC50": 667},
      {"compound": "O=C1CO[C@H]2CCN(C(=O)N3CC4(CC(Oc5cc(=O)oc6ccccc56)C4)C3)C[C@H]2N1", "note": "[Example 4, (4aR,8aS)-6-(6-((2-oxo-2H-chromen-4-yl)oxy)-2-azaspiro[3.3]heptane-2-carbonyl)hexahydro-2H-pyrido[4,3-b][1,4]oxazin-3(4H)-one]", "IC50": 298},
      {"compound": "COc1ccc2c(CN3CCN(C(=O)N4CC[C@@H]5OCC(=O)N[C@@H]5C4)CC3)cc(=O)oc2c1", "note": "[Example 5, (4aR,8aS)-6-(4-((7-methoxy-2-oxo-2H-chromen-4-yl)methyl)piperazine-1-carbonyl)hexahydro-2H-pyrido[4,3-b][1,4]oxazin-3(4H)-one]", "IC50": 3310},
      {"compound": "O=C1CO[C@H]2CCN(C(=O)N3CCC(Nc4ccc([N+](=O)[O-])c5nonc45)CC3)C[C@H]2N1", "note": "[Example 6, (4aR,8aS)-6-(4-((7-nitrobenzo[c][1,2,5]oxadiazol-4-yl)amino)piperidine-1-carbonyl)hexahydro-2H-pyrido[4,3-b][1,4]oxazin-3(4H)-one]", "IC50": 3810},
      {"compound": "O=C1CO[C@H]2CCN(C(=O)N3CC(COC4=C5C=CC=[N+]5[B-](F)(F)n5cccc54)C3)C[C@H]2N1", "note": "[Example 7, (4aR,8aS)-6-(3-(((5,5-difluoro-5H-4λ^4,5λ^4-dipyrrolo[1,2-c:2,1′-f][1,3,2]diazaborinin-10-yl)oxy)methyl)azetidine-1-carbonyl)hexahydro-2H-pyrido[4,3-b][1,4]oxazin-3(4H)-one]", "IC50": 2590},
      {"compound": "O=C1COC2CCN(C(=O)N3C[C@@H]4[C@@H](COC5=C6C=CC=[N+]6[B-](F)(F)n6cccc65)[C@@H]4C3)CC2N1", "note": "(stereo partly drawn) [Example 14, (4aR,8aS)-6-((1R,5S,6R)-6-(((5,5-difluoro-5H-4λ^4,5λ^4-dipyrrolo[1,2-c:2′,1′-f][1,3,2]diazaborinin-10-yl)oxy)methyl)-3-azabicyclo[3.1.0]hexane-3-carbonyl)hexahydro-2H-pyrido[4,3-b][1,4]oxazin-3(4H)-one]", "IC50": 500},
      {"compound": "O=C1CO[C@H]2CCN(C(=O)N3CC4(CC(=CC5=C6C=CC=[N+]6[B-](F)(F)n6cccc65)C4)C3)C[C@H]2N1", "note": "[Example 15, (4aR,8aS)-6-(6-((5,5-difluoro-5H-4λ^4, 5λ^4-dipyrrolo[1,2-c:2,1′-f][1,3,2]diazaborinin-10-yl)methylene)-2-azaspiro[3.3]heptane-2-carbonyl)hexahydro-2H-pyrido[4,3-b][1,4]oxazin-3(4H)-one]", "IC50": 43.3},
      {"compound": "O=C1CO[C@H]2CCN(C(=O)N3CC4(CC(CC5=C6C=CC=[N+]6[B-](F)(F)n6cccc65)C4)C3)C[C@H]2N1", "note": "[Example 16, (4aR,8aS)-6-(6-((5,5-difluoro-5H-4λ^4,5λ^4-dipyrrolo[1,2-c:2,1′-f][1,3,2]diazaborinin-10-yl)methyl)-2-azaspiro[3.3]heptane-2-carbonyl)hexahydro-2H-pyrido[4,3-b][1,4]oxazin-3(4H)-one]", "IC50": 0.77},
      {"compound": "NC(=O)[C@H]1CCN(C(=O)N2CC3(CC(CC4=C5C=CC=[N+]5[B-](F)(F)n5cccc54)C3)C2)C1", "note": "[Example 27, (S)-1-(6-((5,5-difluoro-5H-4λ^4,5λ^4-dipyrrolo[1,2-c:2,1′-f][1,3,2]diazaborinin-10-yl)methyl)-2-azaspiro[3.3]heptane-2-carbonyl)pyrrolidine-3-carboxamide]", "IC50": 1.98},
      {"compound": "O=C(N1CC2(CC(CC3=C4C=CC=[N+]4[B-](F)(F)n4c3ccc4-c3ccc[nH]3)C2)C1)N1CC2(CC(n3cnc(C4CC4)n3)C2)C1", "note": "[Example 31, (6-(3-cyclopropyl-1H-1,2,4-triazol-1-yl)-2-azaspiro[3.3]heptan-2-yl)(6-((5,5-difluoro-3-(1H-pyrrol-2-yl)-5H-5λ^4,6λ^4-dipyrrolo[1,2-c:2′,1′-f][1,3,2]diazaborinin-10-yl)methyl)-2-azaspiro[3.3]heptan-2-yl)methanone]", "IC50": 0.59},
      {"compound": "(4aR,8aS)-6-(2-((5,5-difluoro-5H-4λ^4, 5λ^4-dipyrrolo[1,2-c:2,1′-f][1,3,2]diazaborinin-10-yl)oxy)-7-azaspiro[3.5]nonane-7-carbonyl)hexahydro-2H-pyrido[4,3-b][1,4]oxazin-3(4H)-one [Example 12]", "IC50": 45},
      {"compound": "(4aR,8aS)-6-(4-((5,5-difluoro-5H-4λ^4, 5λ^4-dipyrrolo[1,2-c:2,1′-f][1,3,2]diazaborinin-O-yl)methylene)piperidine-1-carbonyl)hexahydro-2H-pyrido[4,3-b][1,4]oxazin-3(4H)-one [Example 17]", "IC50": 1680},
      {"compound": "(4aR,8aS)-6-(4-((5,5-difluoro-5H-4λ^4, 5λ^4-dipyrrolo[1,2-c:2′,1′-f][1,3,2]diazaborinin-10-yl)oxy)piperidine-1-carbonyl)hexahydro-2H-pyrido[4,3-b][1,4]oxazin-3(4H)-one [Example 9]", "IC50": 6320},
      {"compound": "(4aR,8aS)-6-(6-((5,5-difluoro-3-(1H-pyrrol-2-yl)-5H-4λ^4,5λ^4-dipyrrolo[1,2-c:2′,1′-f][1,3,2]diazaborinin-10-yl)methyl)-2-azaspiro[3.3]heptane-2-carbonyl)hexahydro-2H-pyrido[4,3-b][1,4]oxazin-3(4H)-one [Example 30]", "IC50": 0.05},
      {"compound": "(4aR,8aS)-6-(6-((5,5-difluoro-3-phenyl-5H-4λ^4,5λ^4-dipyrrolo[1,2-c:2′,1′-f][1,3,2]diazaborinin-10-yl)methyl)-2-azaspiro[3.3]heptane-2-carbonyl)hexahydro-2H-pyrido[4,3-b][1,4]oxazin-3(4H)-one [Example 29]", "IC50": 0.66},
      {"compound": "(4aR,8aS)-6-(6-((5,5-difluoro-5H-4λ^4, 5λ^4-dipyrrolo[1,2-c:2′,1′-f][1,3,2]diazaborinin-10-yl)oxy)-2-azaspiro[3.3]heptane-2-carbonyl)hexahydro-2H-pyrido[4,3-b][1,4]oxazin-3(4H)-one [Example 8]", "IC50": 79.3}
    ]}
  ]
}
